From ChEMBL document CHEMBL2406904, “Mitigation of cardiovascular toxicity in a series of CSF-1R inhibitors, and the identification of AZD7507” (Bioorg Med Chem Lett, 2013) come the findings set out here.

Molecules are shown by their SMILES.

Type in all cases: ADME, organism-based
A short description of series [1]: Half life in rat at 10 mg/kg, po and 3 mg/kg, iv. To be noted: in vivo.
Series [2] in a line: Volume of distribution at steady state in rat at 10 mg/kg, po and 3 mg/kg, iv. The note with it: in vivo, read-out: Vdss.
Series [3] is described as follows: Oral bioavailability in rat at 10 mg/kg. The note with it: in vivo.
Series [4] is described as follows: Clearance in rat at 10 mg/kg, po. Further details: dose 10 mg/kg, route oral. To be noted: in vivo.

What is called half-life is how long it takes for the measured level to halve. Higher therefore signals slow decline. The bioavailability is dose-corrected exposure relative to a reference, in per cent. A high value points to good availability. By CL/F is commonly meant the apparent clearance, not corrected for the fraction that reaches the circulation. In series [1], `COc1cc2nnc(C(N)=O)c(Nc3ccc(C)cc3F)c2cc1N1CCN(C)CC1` showed a half-life of 5.7 h. Also, in series [2], the Vd was 3.8 L/kg. In series [3], this molecule showed a bioavailability of 100%. In series [4], this molecule showed a CL/F of 12 mL/min/kg.

`COc1cc2nnc(C(N)=O)c(Nc3ccc(C)cc3F)c2cc1N1CCN(C(C)C)CC1` gave a half-life in series [1] of 2.5 h. The Vd in series [2] is 3.8 L/kg. Also, in series [3], the bioavailability is 100%. In series [4], the CL/F was determined as 17 mL/min/kg.

The molecule `COc1cc2nnc(C(N)=O)c(Nc3ccc(C)cc3F)c2cc1N1C[C@@H](C)N[C@@H](C)C1` gave a half-life in series [1] of 4.4 h. Besides, the Vd in series [2] came to 1.6 L/kg. Also, in series [3], the bioavailability was 61%. For the same molecule, the CL/F in series [4] turned out to be 4 mL/min/kg.

In series [1], `COc1cc2nnc(C(N)=O)c(Nc3ccc(C)cc3F)c2cc1N1CCC(N(C)C)CC1` gave a half-life of 0.9 h. Further, the Vd in series [2] is 2.2 L/kg. The molecule also showed a bioavailability in series [3] of 15%. In addition, the CL/F in series [4] amounted to 34 mL/min/kg.

Molecule `COCCN1CCN(c2cc3c(Nc4ccc(C)cc4F)c(C(N)=O)nnc3cc2OC)CC1` gave a half-life in series [1] of 7.6 h. In addition, the Vd in series [2] was 4.3 L/kg. In series [3], this molecule displayed a bioavailability of 3%. The CL/F in series [4] turned out to be 21 mL/min/kg.

In turn, `COc1cc2nnc(C(N)=O)c(Nc3ccc(C)cc3F)c2cc1N1CCCN(CCO)CC1` gave a half-life in series [1] of 0.9 h. Moreover, in series [2], the Vd was 2.2 L/kg. The molecule also displayed a bioavailability in series [3] of 4%. The same molecule had a CL/F in series [4] of 66 mL/min/kg.

In series [1], `COc1cc2nnc(C(N)=O)c(Nc3ccc(C)cc3F)c2cc1N1CCOCC1` showed a half-life of 0.5 h. Moreover, the Vd in series [2] amounted to 1.7 L/kg. Moreover, the bioavailability in series [3] was determined as 25%. Besides, the CL/F in series [4] stood at 60 mL/min/kg.

Turning to `COc1cc2nnc(C(N)=O)c(Nc3ccc(C)cc3F)c2cc1N1CCC(OC)CC1`, the half-life in series [1] is 0.6 h. In series [2], the Vd amounted to 1.8 L/kg. This molecule also registered a bioavailability in series [3] of 21%. The same molecule showed an apparent clearance CL/F in series [4] of 58 mL/min/kg.

For `COc1cc2nnc(C(N)=O)c(Nc3ccc(C)cc3F)c2cc1N1CCN(S(C)(=O)=O)CC1`, in series [1], the half-life is 1.5 h. Besides, in series [2], the Vd worked out at 1.7 L/kg. Moreover, the bioavailability in series [3] was 3%. Also, the CL/F in series [4] stood at 22 mL/min/kg.

`COc1cc2nnc(C(N)=O)c(Nc3ccc(C)cc3F)c2cc1N1CCN(CCO)CC1`: the half-life in series [1] is 3.1 h. In addition, the Vd in series [2] is 2.2 L/kg. The bioavailability in series [3] came out at 42%. For the same molecule, the CL/F in series [4] worked out at 7 mL/min/kg.

`COc1cc2nnc(C(N)=O)c(Nc3ccc(C)cc3F)c2cc1N1CCN(C(=O)[C@@H](C)O)CC1` showed a half-life in series [1] of 0.9 h. Moreover, the Vd in series [2] is 1.3 L/kg. The bioavailability in series [3] came out at 53%. Also, the CL/F in series [4] worked out at 24 mL/min/kg.

In turn, `COc1cc2nnc(C(N)=O)c(Nc3ccc(C)cc3F)c2cc1C1CCN(C(C)C)CC1` had a half-life in series [1] of 3.5 h. Also, the Vd in series [2] was 2.6 L/kg. In addition, in series [3], the bioavailability was found to be 100%. In series [4], this molecule returned a CL/F of 14 mL/min/kg.

On to `COc1cc2nnc(C(N)=O)c(Nc3ccc(C)cc3F)c2cc1C1CCN(CCO)CC1`, for which the half-life in series [1] was 6.1 h. For the same molecule, the Vd in series [2] came to 3.1 L/kg. Further, in series [3], the bioavailability was 100%. The molecule further gave a CL/F in series [4] of 8 mL/min/kg.
